Source: PMC6478789, “A chemical toolbox for the study of bromodomains and epigenetic signaling” (Nature Communications, 2019)
Where two headings read alike, the source gives them in different places.

Experiments:
EP300 = EP300 (Homo sapiens, UniProt Q09472); assay: Histone acetyltransferase (HAT) activity assay; type: biochemical; settings: read-out: HATs Activity (%);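 note: selectivity screen of bromodomain probe compounds against histone acetyltransferases, with enzyme activity given in percent for compounds tested at 1 and 10 µM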
Chain of EP300 (Q09472 whole entry, species assumed): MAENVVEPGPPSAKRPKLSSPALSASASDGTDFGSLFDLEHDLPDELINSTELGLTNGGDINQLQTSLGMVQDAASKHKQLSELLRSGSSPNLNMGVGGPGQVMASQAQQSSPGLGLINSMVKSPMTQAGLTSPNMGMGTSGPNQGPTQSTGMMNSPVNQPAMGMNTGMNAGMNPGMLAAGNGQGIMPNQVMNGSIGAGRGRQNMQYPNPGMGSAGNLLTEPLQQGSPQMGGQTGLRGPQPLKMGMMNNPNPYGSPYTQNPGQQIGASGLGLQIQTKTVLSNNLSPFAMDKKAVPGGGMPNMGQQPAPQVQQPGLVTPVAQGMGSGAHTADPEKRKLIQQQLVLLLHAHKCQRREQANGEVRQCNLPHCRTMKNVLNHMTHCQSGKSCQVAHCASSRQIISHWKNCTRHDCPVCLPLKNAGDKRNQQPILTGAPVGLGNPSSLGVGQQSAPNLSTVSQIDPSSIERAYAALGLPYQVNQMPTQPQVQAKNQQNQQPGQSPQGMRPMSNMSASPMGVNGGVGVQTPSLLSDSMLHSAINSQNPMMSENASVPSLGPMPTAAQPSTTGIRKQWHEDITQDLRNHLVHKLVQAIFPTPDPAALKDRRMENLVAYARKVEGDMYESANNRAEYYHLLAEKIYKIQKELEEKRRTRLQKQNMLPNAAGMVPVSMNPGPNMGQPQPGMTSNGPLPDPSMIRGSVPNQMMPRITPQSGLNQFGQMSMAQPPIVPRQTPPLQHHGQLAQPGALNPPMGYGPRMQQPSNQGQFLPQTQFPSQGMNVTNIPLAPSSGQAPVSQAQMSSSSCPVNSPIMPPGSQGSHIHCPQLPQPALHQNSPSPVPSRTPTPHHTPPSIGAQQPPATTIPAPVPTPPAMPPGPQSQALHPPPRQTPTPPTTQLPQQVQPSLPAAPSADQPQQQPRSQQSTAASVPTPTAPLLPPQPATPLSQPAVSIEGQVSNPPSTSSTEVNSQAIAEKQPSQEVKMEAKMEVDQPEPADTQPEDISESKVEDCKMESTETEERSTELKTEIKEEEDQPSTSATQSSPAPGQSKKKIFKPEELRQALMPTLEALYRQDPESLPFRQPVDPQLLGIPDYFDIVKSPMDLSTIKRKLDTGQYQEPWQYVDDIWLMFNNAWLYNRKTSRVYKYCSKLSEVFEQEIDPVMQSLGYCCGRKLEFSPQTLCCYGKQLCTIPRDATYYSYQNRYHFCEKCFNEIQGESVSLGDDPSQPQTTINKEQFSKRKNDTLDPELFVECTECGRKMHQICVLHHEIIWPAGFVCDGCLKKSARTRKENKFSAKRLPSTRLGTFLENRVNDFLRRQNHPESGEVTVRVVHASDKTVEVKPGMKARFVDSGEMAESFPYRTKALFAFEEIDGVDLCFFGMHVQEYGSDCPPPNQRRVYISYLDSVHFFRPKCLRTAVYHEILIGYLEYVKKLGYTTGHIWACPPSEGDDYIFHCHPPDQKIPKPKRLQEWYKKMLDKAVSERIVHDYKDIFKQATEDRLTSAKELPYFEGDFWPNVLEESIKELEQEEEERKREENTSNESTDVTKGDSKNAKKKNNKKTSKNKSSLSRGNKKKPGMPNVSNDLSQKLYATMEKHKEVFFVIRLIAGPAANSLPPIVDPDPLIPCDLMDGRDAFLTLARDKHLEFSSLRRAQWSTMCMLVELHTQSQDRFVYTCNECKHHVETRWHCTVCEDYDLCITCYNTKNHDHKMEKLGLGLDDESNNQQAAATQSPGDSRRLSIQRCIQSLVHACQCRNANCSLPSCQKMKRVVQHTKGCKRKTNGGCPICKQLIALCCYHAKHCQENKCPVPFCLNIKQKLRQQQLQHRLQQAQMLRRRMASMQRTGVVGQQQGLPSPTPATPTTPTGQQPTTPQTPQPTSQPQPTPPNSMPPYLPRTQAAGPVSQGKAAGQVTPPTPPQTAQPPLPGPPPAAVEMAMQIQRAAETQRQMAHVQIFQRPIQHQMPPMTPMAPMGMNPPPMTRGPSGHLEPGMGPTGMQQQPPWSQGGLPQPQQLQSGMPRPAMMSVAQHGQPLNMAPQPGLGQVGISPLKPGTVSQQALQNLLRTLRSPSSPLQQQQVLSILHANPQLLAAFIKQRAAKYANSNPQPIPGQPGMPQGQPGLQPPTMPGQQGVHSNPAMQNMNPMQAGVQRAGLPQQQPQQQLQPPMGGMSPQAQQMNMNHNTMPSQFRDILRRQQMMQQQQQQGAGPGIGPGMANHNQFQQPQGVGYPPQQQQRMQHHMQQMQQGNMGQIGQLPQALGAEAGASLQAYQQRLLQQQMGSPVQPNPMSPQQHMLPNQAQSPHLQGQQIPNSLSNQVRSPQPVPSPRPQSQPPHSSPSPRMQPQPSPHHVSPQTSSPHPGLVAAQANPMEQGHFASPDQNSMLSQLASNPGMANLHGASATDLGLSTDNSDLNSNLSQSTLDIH

GCN5L2 = GCN5L2 (Homo sapiens, UniProt Q92830); assay: Histone acetyltransferase (HAT) activity assay; type: biochemical; settings: read-out: HATs Activity (%);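 note: selectivity screen of BRD probe compounds across a panel of histone acetyltransferases, HAT activity in % with compound at 1 or 10 µM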
BRPF1 = BRPF1 (Homo sapiens, UniProt P55201); assay: Temperature shift assay (non-BRD reader domains); type: binding; settings: 10µM compound
Chain of BRPF1 (P55201 1085-1168 limits assumed, species assumed): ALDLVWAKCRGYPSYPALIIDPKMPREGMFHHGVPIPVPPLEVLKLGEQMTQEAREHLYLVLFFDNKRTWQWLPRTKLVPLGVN

MYST3 = MYST3 (Homo sapiens, UniProt Q92794); assay: Histone acetyltransferase (HAT) activity assay; type: biochemical; settings: read-out: HATs Activity (%);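 note: selectivity screen of bromodomain probe compounds across a panel of histone acetyltransferases, read out as enzyme activity in %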
Chain of MYST3 (Q92794 whole entry, species assumed): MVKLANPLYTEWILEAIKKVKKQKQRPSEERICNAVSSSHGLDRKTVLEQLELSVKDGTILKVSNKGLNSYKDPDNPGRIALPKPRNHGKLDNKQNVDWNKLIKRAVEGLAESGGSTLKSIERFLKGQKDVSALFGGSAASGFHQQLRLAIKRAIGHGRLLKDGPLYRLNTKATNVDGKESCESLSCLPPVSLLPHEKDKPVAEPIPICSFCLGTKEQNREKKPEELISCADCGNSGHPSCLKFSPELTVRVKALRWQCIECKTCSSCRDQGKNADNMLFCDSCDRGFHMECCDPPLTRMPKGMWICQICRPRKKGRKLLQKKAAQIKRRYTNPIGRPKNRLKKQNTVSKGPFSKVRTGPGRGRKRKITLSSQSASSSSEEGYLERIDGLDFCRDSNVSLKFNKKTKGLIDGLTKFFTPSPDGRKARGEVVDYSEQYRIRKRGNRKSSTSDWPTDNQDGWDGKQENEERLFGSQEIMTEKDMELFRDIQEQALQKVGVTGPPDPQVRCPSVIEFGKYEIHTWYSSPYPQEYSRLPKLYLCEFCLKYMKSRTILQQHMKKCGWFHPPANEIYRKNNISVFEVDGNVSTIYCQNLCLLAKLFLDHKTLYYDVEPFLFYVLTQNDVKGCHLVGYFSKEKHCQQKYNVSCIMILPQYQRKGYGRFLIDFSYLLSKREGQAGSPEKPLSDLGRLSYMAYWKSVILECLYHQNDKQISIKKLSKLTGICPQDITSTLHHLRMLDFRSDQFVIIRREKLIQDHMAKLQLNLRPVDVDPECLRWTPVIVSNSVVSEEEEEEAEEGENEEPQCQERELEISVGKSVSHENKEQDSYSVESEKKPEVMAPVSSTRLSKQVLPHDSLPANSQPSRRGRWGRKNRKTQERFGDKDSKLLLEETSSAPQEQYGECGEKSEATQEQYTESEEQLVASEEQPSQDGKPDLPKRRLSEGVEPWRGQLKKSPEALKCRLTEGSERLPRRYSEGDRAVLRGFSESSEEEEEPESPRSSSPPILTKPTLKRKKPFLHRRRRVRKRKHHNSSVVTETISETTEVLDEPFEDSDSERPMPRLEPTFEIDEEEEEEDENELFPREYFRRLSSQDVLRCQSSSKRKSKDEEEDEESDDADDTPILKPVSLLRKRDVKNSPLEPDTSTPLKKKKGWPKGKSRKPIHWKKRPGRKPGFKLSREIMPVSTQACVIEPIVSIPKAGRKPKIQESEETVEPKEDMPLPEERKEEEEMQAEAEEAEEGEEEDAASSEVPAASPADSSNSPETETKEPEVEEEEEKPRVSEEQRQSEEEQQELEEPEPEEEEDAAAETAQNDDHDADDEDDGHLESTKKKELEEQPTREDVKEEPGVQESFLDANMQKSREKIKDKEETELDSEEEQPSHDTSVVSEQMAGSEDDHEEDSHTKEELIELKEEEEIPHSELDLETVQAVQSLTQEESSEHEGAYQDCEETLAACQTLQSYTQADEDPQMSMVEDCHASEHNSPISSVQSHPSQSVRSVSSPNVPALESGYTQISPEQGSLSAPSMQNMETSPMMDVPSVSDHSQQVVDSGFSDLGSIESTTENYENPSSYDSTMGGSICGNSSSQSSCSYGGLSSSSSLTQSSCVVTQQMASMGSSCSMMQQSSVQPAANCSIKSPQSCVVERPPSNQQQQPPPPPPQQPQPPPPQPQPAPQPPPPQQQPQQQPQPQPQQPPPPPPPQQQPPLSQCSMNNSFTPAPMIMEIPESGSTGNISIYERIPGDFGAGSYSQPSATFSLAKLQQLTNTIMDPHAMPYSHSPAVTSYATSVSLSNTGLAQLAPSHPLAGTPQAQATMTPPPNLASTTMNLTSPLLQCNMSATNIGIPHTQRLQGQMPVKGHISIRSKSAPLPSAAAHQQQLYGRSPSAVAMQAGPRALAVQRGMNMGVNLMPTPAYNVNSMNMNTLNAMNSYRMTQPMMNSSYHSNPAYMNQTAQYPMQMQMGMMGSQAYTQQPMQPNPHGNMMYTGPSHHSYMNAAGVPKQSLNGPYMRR

HAT1 = biological target: T1, HAT1 (Homo sapiens, UniProt O14929); assay: Histone acetyltransferase (HAT) activity assay; type: biochemical; settings: read-out: HATs Activity (%);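 note: HAT selectivity screen of BRD probe compounds, enzyme activity in % measured with compound at 1 µM and 10 µM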
T1 sequence (O14929 1-419): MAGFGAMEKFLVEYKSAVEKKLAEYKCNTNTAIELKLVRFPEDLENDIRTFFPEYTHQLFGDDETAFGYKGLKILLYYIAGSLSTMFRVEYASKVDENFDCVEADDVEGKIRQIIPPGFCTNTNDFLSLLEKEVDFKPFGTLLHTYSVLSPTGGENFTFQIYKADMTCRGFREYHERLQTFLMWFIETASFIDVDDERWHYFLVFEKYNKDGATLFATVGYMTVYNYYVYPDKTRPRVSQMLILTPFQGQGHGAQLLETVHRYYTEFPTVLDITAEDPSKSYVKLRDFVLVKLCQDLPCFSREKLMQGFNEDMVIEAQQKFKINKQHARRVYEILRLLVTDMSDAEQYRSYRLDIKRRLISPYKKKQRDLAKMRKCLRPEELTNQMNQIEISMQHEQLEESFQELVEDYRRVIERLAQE

MYST1 = biological target: T2, MYST1 (Homo sapiens, UniProt Q9H7Z6); assay: Histone acetyltransferase (HAT) activity assay; type: biochemical; settings: read-out: HATs Activity (%);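 note: selectivity screen across a panel of histone acetyltransferases, with compounds tested at 1 and 10 µM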
T2 sequence (Q9H7Z6 1-458): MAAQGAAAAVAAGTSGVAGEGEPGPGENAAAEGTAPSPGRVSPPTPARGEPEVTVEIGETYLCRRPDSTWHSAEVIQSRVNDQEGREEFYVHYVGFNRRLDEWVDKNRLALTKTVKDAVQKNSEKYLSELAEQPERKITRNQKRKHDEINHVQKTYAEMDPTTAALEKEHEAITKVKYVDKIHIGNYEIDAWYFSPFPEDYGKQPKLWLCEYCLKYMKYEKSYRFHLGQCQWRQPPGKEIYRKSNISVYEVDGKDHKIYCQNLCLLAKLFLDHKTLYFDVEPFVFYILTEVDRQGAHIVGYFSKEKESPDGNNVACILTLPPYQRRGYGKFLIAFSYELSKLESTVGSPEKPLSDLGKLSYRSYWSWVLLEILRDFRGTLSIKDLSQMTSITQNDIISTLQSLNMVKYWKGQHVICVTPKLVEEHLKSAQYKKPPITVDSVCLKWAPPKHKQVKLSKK

PBRM1(2) = PBRM1(2) (Homo sapiens, UniProt Q86U86); assay: BROMOscan ligand-binding assay; settings: BROMOscan Gene Symbol PBRM1(2)
Chain of PBRM1(2) (Q86U86 177-287 limits assumed): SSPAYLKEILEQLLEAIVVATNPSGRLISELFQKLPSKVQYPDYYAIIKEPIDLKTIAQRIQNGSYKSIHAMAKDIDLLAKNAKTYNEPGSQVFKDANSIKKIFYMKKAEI
Excerpt: (§1) BROMOscan is a binding assay based on the well-known KINOMEscan technology. This assay measures the binding of a DNA-tagged bromodomain to an immobilized BRD ligand. If an inhibitor is present, it will compete with the bromodomain binding to the immobilized ligand, resulting in reduction of a quantitative PCR (qPCR) signal in a dose-dependent manner.

BRD2(1) = BRD2(1) (Homo sapiens, UniProt P25440); assay: BROMOscan ligand-binding assay; settings: BROMOscan Gene Symbol BRD2(1)
Chain of BRD2(1) (P25440 74-180 limits assumed): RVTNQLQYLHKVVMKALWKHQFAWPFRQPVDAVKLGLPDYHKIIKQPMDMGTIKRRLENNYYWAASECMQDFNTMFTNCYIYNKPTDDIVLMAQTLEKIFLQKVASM
Excerpt: as §1

ATAD2A = biological target: T3, ATAD2A (Homo sapiens, UniProt Q6PL18); assay: BROMOscan ligand-binding assay
T3 sequence (Q6PL18 980-1092 limits assumed): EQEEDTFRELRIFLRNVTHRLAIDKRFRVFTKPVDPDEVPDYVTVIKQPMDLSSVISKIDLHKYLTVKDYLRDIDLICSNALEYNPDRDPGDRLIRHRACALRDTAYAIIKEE
Excerpt: as §1

TRIM24(PHD,BRD) = biological target: T4, TRIM24(PHD,BRD) (Homo sapiens, UniProt O15164); assay: BROMOscan ligand-binding assay; settings: BROMOscan Gene Symbol TRIM24(PHD,Bromo.)
T4 sequence (O15164 824-1006 limits assumed): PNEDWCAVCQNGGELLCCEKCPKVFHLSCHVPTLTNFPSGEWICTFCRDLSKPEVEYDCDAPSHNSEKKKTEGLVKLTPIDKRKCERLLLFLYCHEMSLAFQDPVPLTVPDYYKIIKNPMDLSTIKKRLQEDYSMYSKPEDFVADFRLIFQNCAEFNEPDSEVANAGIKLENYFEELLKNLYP
Excerpt: as §1

ATAD2B = biological target: T5, ATAD2B (Homo sapiens, UniProt Q9ULI0); assay: BROMOscan ligand-binding assay
T5 sequence (Q9ULI0 951-1066 limits assumed): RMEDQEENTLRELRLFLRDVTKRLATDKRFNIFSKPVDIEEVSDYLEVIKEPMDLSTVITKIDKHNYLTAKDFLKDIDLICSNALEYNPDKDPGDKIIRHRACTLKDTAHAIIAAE
Excerpt: as §1

BAZ2A = biological target: T6, BAZ2A (Homo sapiens, UniProt Q9UIF9); assay: BROMOscan ligand-binding assay; settings: BROMOscan Gene Symbol BAZ2A
T6 sequence (Q9UIF9 1793-1897 limits assumed): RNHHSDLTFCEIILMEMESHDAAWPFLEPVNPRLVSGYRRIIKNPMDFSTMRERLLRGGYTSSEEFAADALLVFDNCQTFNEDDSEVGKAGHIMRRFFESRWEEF
Excerpt: as §1

BRD3(2) = BRD3(2) (Homo sapiens, UniProt Q15059); assay: BROMOscan ligand-binding assay; settings: BROMOscan Gene Symbol BRD3(2)
Chain of BRD3(2) (Q15059 306-415 limits assumed): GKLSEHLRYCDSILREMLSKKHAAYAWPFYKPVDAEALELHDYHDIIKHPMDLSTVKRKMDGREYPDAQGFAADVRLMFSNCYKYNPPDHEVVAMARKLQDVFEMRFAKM
Excerpt: as §1

[1] = read-out: KD (BROMOscan), sheet prints no unit (nM)

Structure (SMILES) | activity at 1 µM (EP300) | activity at 10 µM (EP300) | activity at 1 µM (GCN5L2) | activity at 10 µM (GCN5L2) | Tm (C) 10µM, temperature shift (BRPF1) | activity at 1 µM (MYST3) | activity at 10 µM (MYST3) | activity at 1 µM (HAT1) | activity at 10 µM (HAT1) | activity at 1 µM (MYST1) | activity at 10 µM (MYST1) | Kd (PBRM1(2)) | Kd (BRD2(1)) | Kd (ATAD2A; BROMOscan Gene Symbol ATAD2A) | Kd (ATAD2A; [1]) | Kd (TRIM24(PHD,BRD)) | Kd (ATAD2B; BROMOscan Gene Symbol ATAD2B) | Kd (ATAD2B; [1]) | Kd (BAZ2A) | Kd (BRD3(2))
Cc1c(NC(=O)c2cc(C(N)=O)nc3cc(F)ccc23)c(C(F)(F)F)nn1Cc1ccc(C(C)(C)C)cc1 [BAY-588] | 103% | 99% | 94% | 95% | -0.2 Kelvin | 99% | 96% | 99% | 97% | 100% | 93% | – | – | – | – | – | – | – | – | –
COc1cc(Cl)c(C(=O)N[C@@H](CN[C@H]2CC[C@@H](N)CC2)Cc2ccc(C#N)cc2)cc1-c1ccc(CN[C@H](C)c2ccc(C)cc2)o1 [BAY-850] | 98% | 87% | 99% | 102% | -2.2 Kelvin | 96% | 97% | 101% | 101% | 93% | 94% | – | – | – | – | – | – | – | – | –
Cc1c(NC(=O)c2cc(C(N)=O)nc3cc(F)ccc23)c(C(F)(F)F)nn1Cc1ccc(C#N)cc1 [BAY-876] | 99% | 95% | 100% | 97% | -0.3 Kelvin | 99% | 101% | 97% | 89% | 96% | 91% | – | – | – | – | – | – | – | – | –

Second part, the compound after the results:

activity at 1 µM (EP300) | activity at 10 µM (EP300) | activity at 1 µM (GCN5L2) | activity at 10 µM (GCN5L2) | Tm (C) 10µM, temperature shift (BRPF1) | activity at 1 µM (MYST3) | activity at 10 µM (MYST3) | activity at 1 µM (HAT1) | activity at 10 µM (HAT1) | activity at 1 µM (MYST1) | activity at 10 µM (MYST1) | Kd (PBRM1(2)) | Kd (BRD2(1)) | Kd (ATAD2A; BROMOscan Gene Symbol ATAD2A) | Kd (ATAD2A; [1]) | Kd (TRIM24(PHD,BRD)) | Kd (ATAD2B; BROMOscan Gene Symbol ATAD2B) | Kd (ATAD2B; [1]) | Kd (BAZ2A) | Kd (BRD3(2)) | Structure (SMILES)
95% | 93% | 99% | 103% | -2.5 Kelvin | 98% | 85% | 100% | 93% | 99% | 99% | – | – | – | – | – | – | – | – | – | Cc1cc2c(cc1N1C(=O)c3cccc4c(CCCO)ccc(c34)C1=O)n(C)c(=O)n2C [BAY-299]
– | – | – | – | – | – | – | – | – | – | – | 42 µM | 0.78 µM | > 150000 nM | > 30000 nM | 17 µM | > 50000 nM | > 30000 nM | 55 µM | 1.6 µM | Cc1noc(C)c1-c1ccc2c(c1)nc(CCc1ccccc1)n2CCN1CCOCC1 [CBP30-298]
